Results taken from US20140227419A1, “ANTI-FUNGAL AGENT FOR PROCESSED CEREAL FOODS” (NAGASE & co., LTD., priority 2011, published 2014).

Test system: mold
Experiment: Anti-fungal effect by spraying method (2): loaves with calcium propionate kneaded into the dough sprayed, mold growth checked visually
Settings: 0.3% calcium propionate kneaded into bread dough; sprayed with nothing
Protocol: Three hundred and thirty grams of bread dough (dough) of the raw materials blended in the ratio shown in Table 1 (Example 1) was mixed at a low speed for 5 minutes, and then, was mixed at a high speed for 7 minutes. The dough was retained at 35° C. for 100 minutes to be leavened, and then, was baked at 140° C. for 20 minutes to obtain a loaf of bread (hereinafter, referred to as a “loaf”).
The obtained loaf was left to room temperature, and the entire surface of the loaf (approximately 280 g) was sprayed with a spraying agent (approximately 10 μL/cm^2) shown in Table 2 (“0.1% chitinase” means a concentration when 1 mg of chitinase is added with respect to 1 ml of the spraying agent). The loaves were retained in the atmosphere to dry the surface, and then, the loaves were independently put into separate plastic bags and were preserved at a room temperature. The presence or the absence of the growth of mold was checked visually. […]
The anti-fungal effects of the spraying agents 1 to 3 were evaluated in the same manner as in Example 1, except that the raw materials were blended in the ratio shown in Table 1 (Example 2) instead of the ratio shown in Table 1 (Example 1). […]

Structure (SMILES): CCC(=O)[O-].CCC(=O)[O-].[Ca+2] [calcium propionate]
- Length of preservation time of bread with calcium propionate kneaded into the dough, without spraying: 11 days
